7 molecules from US8158622B2, “Pyrrolopyridine-2-carboxylic acid amide inhibitors of glycogen phosphorylase” (Prosidion Limited, priority 2003, dated 2012) can be followed below.

This experiment has as its target T1, Rabbit muscle glycogen phosphorylase a (Oryctolagus cuniculus, UniProt P00489).
T1 construct: purchased Sigma P1261
T1 sequence (P00489 2-843 limits assumed): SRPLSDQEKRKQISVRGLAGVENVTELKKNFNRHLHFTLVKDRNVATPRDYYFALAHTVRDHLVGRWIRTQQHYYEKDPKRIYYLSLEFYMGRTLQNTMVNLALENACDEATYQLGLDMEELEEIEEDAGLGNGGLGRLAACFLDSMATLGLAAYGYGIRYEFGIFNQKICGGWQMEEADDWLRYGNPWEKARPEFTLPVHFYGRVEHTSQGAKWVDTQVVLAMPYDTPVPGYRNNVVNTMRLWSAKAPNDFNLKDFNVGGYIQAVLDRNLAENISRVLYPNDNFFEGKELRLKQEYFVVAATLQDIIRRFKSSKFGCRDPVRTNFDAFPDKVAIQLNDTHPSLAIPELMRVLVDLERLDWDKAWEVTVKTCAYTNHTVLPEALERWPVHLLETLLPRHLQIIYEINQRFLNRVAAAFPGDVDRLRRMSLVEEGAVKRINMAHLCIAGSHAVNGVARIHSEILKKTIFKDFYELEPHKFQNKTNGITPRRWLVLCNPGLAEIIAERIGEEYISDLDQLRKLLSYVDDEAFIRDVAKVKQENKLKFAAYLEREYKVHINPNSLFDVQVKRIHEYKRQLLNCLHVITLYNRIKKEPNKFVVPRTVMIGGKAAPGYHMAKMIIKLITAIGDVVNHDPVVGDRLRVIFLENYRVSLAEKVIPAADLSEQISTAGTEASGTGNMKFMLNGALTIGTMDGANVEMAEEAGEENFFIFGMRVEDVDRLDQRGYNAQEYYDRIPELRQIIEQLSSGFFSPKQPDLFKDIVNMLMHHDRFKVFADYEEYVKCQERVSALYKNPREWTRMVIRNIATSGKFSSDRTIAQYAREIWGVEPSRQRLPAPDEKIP
Put plainly: Glycogen phosphorylase assay in vitro (reverse direction, malachite green phosphate detection). The experiment is classed as biochemical. The note with it: 50 mM Hepes pH 7.2, 7.5 mM glucose, 0.5 mM glucose-1-phosphate, 1 mg/mL glycogen, 30° C. for 30 min. The text has this:
α-D-Glucose-1-phosphate (disodium salt), Glycogen, D-Glucose, Malachite Green Hydrochloride, Ammonium Molybdate tetrahydrate, BSA, HEPES and rabbit muscle phosphorylase α (P1261) were purchased from Sigma. All other reagents were analytical grade.
Glycogen Phosphorylase Assay In Vitro:
An assay for glycogen phosphorylase activity in the reverse direction was developed based on the method described by Engers et al., Can. J. Biochem., 1970, 48, 746-754]. Rabbit muscle glycogen phosphorylase a (Sigma) was reconstituted at a stock concentration of 100 μg/mL in 25 mM Tris/HCl. […] in a 96-well plate in a final volume of 100 μL containing 50 mM Hepes pH 7.2, 7.5 mM glucose, 0.5 mM glucose-1-phosphate and 1 mg/mL glycogen. After incubation at 30° C. for 30 min, the inorganic phosphate released from glucose-1-phosphate was measured by the addition of 150 μL of malachite green/molybdate solution prepared as follows: 5 mL of 4.2% ammonium molybdate in 4N HCl, 15 mL of 0.045% malachite green, 50 μL of Tween 20. Following a 30 min incubation at rt, the absorbance was measured at 620 nm. For IC50 determination, 10 μL of a serial dilution of compound (100 μM to 0.004 μM) in DMSO was added to each reaction in duplicate with the equivalent concentration of DMSO added to the control uninhibited reaction. Dose response curves were then obtained by plotting % inhibition versus log10 compound concentration. IC50 is defined as the concentration of compound achieving 50% inhibition under the assay conditions described.

Molecule `CN(C)C(=O)[C@H](Cc1ccccc1)NC(=O)c1cc2ncccc2[nH]1` [Example 24, 1H-Pyrrolo[3,2-b]pyridine-2-carboxylic acid (1-dimethylcarbamoyl-2-(S)-phenylethyl)amide] showed an IC50 not below 100 µM.

Turning to `COc1ccc2[nH]c(C(=O)N[C@@H](Cc3ccccc3)C(=O)N(C)C)cc2n1` [Example 23, 5-Methoxy-1H-pyrrolo[3,2-b]pyridine-2-carboxylic acid (1-dimethylcarbamoyl-2-(S)-phenylethyl)amide], the IC50 is not below 100 µM.

Molecule `O=C(NCCOc1ccccc1)c1cc2ncccc2[nH]1` [Example 25, 1H-Pyrrolo[3,2-b]pyridine-2-carboxylic acid (2-phenoxyethyl)amide] gave an IC50 not below 100 µM.

The molecule `O=C(NCCNCc1ccccc1)c1cc2cc(Cl)ncc2[nH]1` [Example 29, 5-Chloro-1H-pyrrolo[2,3-c]pyridine-2-carboxylic acid (2-benzylaminoethyl)amide] registered an IC50 not below 100 µM.

In turn, `O=C(NCCNc1ccccc1)c1cc2ncccc2[nH]1` [Example 26, 1H-Pyrrolo[3,2-b]pyridine-2-carboxylic acid (2-phenylaminoethyl)amide] gave a concentration for half-maximal inhibition (IC50) not below 100 µM.

`O=C(NCCN1CCN(Cc2ccccc2)CC1)c1cc2cc(Cl)ncc2[nH]1` [Example 28, 5-Chloro-1H-pyrrolo[2,3-c]pyridine-2-carboxylic acid [2-(4-benzylpiperazin-1-yl)ethyl]amide] showed an IC50 not below 100 µM.

The molecule `O=C(NCCNc1ccccc1)c1cc2ccncc2[nH]1` [Example 21, 1H-Pyrrolo[2,3-c]pyridine-2-carboxylic acid (2-phenylaminoethyl)amide] displayed an IC50 not below 100 µM.
